For series [1] the following is noted: cited from earlier work.
The conditions of series [2]: oral and parenteral administration in animals; cited from earlier work.
A short description of series [3]: Antioxidant screening in the formulation. Conditions: alpha-tocopherol at 0.5% concentration in surfactant phase; ascorbic acid in aqueous phase. The class given is physicochemical. From the text:
Alpha tocopherol and ascorbic acid were screened for their effectiveness for use within the formulation. Ascorbic acid was used in the aqueous phase whereas the alpha tocopherol was used in the surfactant phase in terms of order of addition.

Structures are written as SMILES.

Consider `OC[C@H]1O[C@H](O[C@]2(CCl)O[C@H](CCl)[C@@H](O)[C@@H]2O)[C@H](O)[C@@H](O)[C@H]1Cl` [Sucralose], for which the ADI limit in series [1] (pediatric population) is listed as 5 mg/kg/day. For `CCCOC(=O)c1ccc(O)cc1` [propyl paraben, propyl parahydroxybenzoate], the “permitted daily exposure (PDE)” value in series [1] (adults and pediatric patients) is 2 mg/kg/day. Moreover, the acute toxicity result in series [2] is “relatively non-toxic”. On to `Cc1c(C)c2c(c(C)c1O)CC[C@@](C)(CCC[C@H](C)CCC[C@H](C)CCCC(C)C)O2` [alpha-tocopherol], for which the “appearance of solutions containing the antioxidant” value in series [3] is on record as “hazy”.

On to `COC(=O)c1ccc(O)cc1` [methylparaben, methyl parahydroxybenzoate], for which the acute toxicity result in series [2] was “practically non-toxic”. In the case of `O=C1O[C@H]([C@@H](O)CO)C(O)=C1O` [ascorbic acid], in series [3], the “appearance of solutions containing the antioxidant” value is recorded as “clear colourless solutions”.

Values taken from patent publication US11426362B2, “Oral cannabinoid formulations” (GW Research Limited, priority 2017, dated 2022).
